Source: PMC12692169, “Identification of Novel TAT-I24-Related Peptides with Antiviral Activities” (International Journal of Molecular Sciences, 2025)
Where two headings read alike, the source gives them in different places. Positions of bridges follow the written chain, without caps; N, C: chain ends. Residues, ends and D or L forms follow the SMILES beside them. No end group written: not given here.

Columns and labels:
Baculovirus/HEK293 = conditions: for IC50: 24 h; for fold higher IC50 value compared to TAT-I24, baculovirus-transduced HEK293 cells: ratio to TAT-I24 IC50
red blood cells (RBC) [1] = assay: RBC swelling (enlarged pellet after centrifugation); conditions: peptides diluted in PBS (absence of serum), up to 20 µM, 1 h, pellet size after centrifugation
plasmid-DNA (dsDNA) = assay: Fluorescence-based dsDNA-binding assay (SYBR Gold, plasmid DNA); conditions: TAT-I24 as reference, three independent experiments in duplicates
Experimental: We also included the TAT peptide, which binds DNA [34, 35].
Peptides were incubated with plasmid-DNA in the presence of SYBR^TM Gold dye. Reduction in fluorescence indicates binding of peptides to DNA. […] Curve fitting was performed using GraphPad Prism software.
DNA binding assay was performed, as described previously [26].

[2] = test system: DiO-labelled MCMV in NIH/3T3 cells; conditions: previous study; cited from earlier work
Text: In contrast, the peptide TAT-M214, whi ...

[3] = test system: mouse cytomegalovirus (MCMV)/NIH/3T3 cells; conditions: 72 h
red blood cells (RBC) [4] = conditions: RBC 1 h 37 °C; for haemolysis: OD 450 nm of supernatant
Experimental: Figure 4 Effect of peptides on haemolysis and RBC swelling. (A,B) RBCs were isolated and treated in conical 96-well plates with peptides diluted in PBS or in 10% donor serum for one hour. OD [450 nm] was determined in the supernatants after centrifugation of the plates. Mean ± SD from two experiments in triplicates are shown. […] Dashed lines indicate background OD. (C) Swelling of RBC after treatment with dilutions of peptides in PBS for one hour and centrifugation of the plates. Red wells indicate an enlarged cell pellet due to swelling of the RBCs. Sequences of the peptides are shown at the right and are indicated in red with the TAT fusion partner indicated in blue.
Whole blood was collected from a healthy volunteer after informed consent by venipuncture into K2E K2EDTA VacuetteTM tubes (Greiner Bio-One, Kremsmünster, Austria) with 4 mL blood. The assay for haemolysis was adapted from Sæbo et al. and performed as described previously. In brief, blood was centrifuged at 1000× g for 10 min, and plasma kept for further use, followed by resuspension of red blood cells (RBC) in PBS and centrifugation for three times. RBC were seeded at a cell number of 1 × 10^7 cells/100 µL PBS per well into conical 96-well plates (ThermoFisher, Darmstadt, Germany) and incubated with 100 µL of 1:2 peptide dilutions starting from 40 µM either in PBS or 10% donor serum. Plates were incubated at 37 °C for one hour before at 1000× g for 5 min. Supernatants were then transferred to flat 96-well plates and optical density (OD) was determined at 450 nm using a Glo-Max®-Multi Detection System (Promega, Mannheim, Germany). As positive control, cells were lysed with 0.5% Triton X-100. Images from centrifuged plates were taken using a Kodak PIXPRO camera (Rochester, NY, USA).

In the case of `CC(C)C[C@H](NC(=O)[C@H](CO)NC(=O)[C@H](CC(C)C)NC(=O)[C@H](CCC(N)=O)NC(=O)[C@H](CS)NC(=O)[C@H](CCC(N)=O)NC(=O)[C@@H]1CCCN1C(=O)[C@@H]1CCCN1C(=O)[C@H](CCCNC(=N)N)NC(=O)[C@H](CCCNC(=N)N)NC(=O)[C@H](CCCNC(=N)N)NC(=O)[C@H](CCC(N)=O)NC(=O)[C@H](CCCNC(=N)N)NC(=O)[C@H](CCCNC(=N)N)NC(=O)[C@H](CCCCN)NC(=O)[C@H](CCCCN)NC(=O)[C@H](CCCNC(=N)N)NC(=O)CN)C(=O)N[C@@H](C)C(=O)N1CCC[C@H]1C(=O)N[C@@H](Cc1ccc(O)cc1)C(=O)N[C@@H](CS)C(=O)O` [TAT-M42] (H-GRKKRRQRRRPPQCQLSLAPYC-OH; N-terminus and C-terminus assumed), the IC50 (Baculovirus/HEK293) is reported as 378 nM, the “fold higher IC50 value compared to TAT-I24, baculovirus-transduced HEK293 cells” value (from here on “fold higher IC50 value”) (Baculovirus/HEK293) is reported as “approximately 20 fold” and the RBC swelling (red blood cells (RBC) [1]) is reported as “did not cause RBC swelling in the absence of serum even at 20 µM”. For the same compound, the “dsDNA-binding (reduction in SYBR Gold fluorescence)” value (plasmid-DNA (dsDNA)) was “less dsDNA-binding”.
For “CLAFYACF (disulfide 1-7 (inferred)) [C22del_cyc, TAT-I24 with a cyclized I24 peptide (CLAFYACF), cyclized via the two cysteine residues; previous study]”, the “effect on localization of DiO-labelled MCMV” value [2] is given as “no effect on localization of DiO-labelled MCMV”.
In the case of `CC(C)C[C@H](NC(=O)[C@H](CCC(N)=O)NC(=O)[C@@H]1CCCN1C(=O)[C@H](CO)NC(=O)[C@H](CS)NC(=O)[C@H](CCC(N)=O)NC(=O)[C@@H]1CCCN1C(=O)[C@@H]1CCCN1C(=O)[C@H](CCCNC(=N)N)NC(=O)[C@H](CCCNC(=N)N)NC(=O)[C@H](CCCNC(=N)N)NC(=O)[C@H](CCC(N)=O)NC(=O)[C@H](CCCNC(=N)N)NC(=O)[C@H](CCCNC(=N)N)NC(=O)[C@H](CCCCN)NC(=O)[C@H](CCCCN)NC(=O)[C@H](CCCNC(=N)N)NC(=O)CN)C(=O)N[C@@H](C)C(=O)N1CCC[C@H]1C(=O)N[C@@H](Cc1ccccc1)C(=O)N[C@@H](CS)C(=O)O` [TAT-M41] (H-GRKKRRQRRRPPQCSPQLAPFC-OH; N-terminus and C-terminus assumed), the IC50 (Baculovirus/HEK293) is reported as 434 nM, the “fold higher IC50 value” value (Baculovirus/HEK293) is reported as “approximately 20 fold” and the RBC swelling (red blood cells (RBC) [1]) is reported as “did not cause RBC swelling in the absence of serum even at 20 µM”. For the same compound, the “dsDNA-binding (reduction in SYBR Gold fluorescence)” value (plasmid-DNA (dsDNA)) was “less dsDNA-binding”.
With `CC(C)C[C@H](NC(=O)[C@H](CS)NC(=O)[C@H](C)NC(=O)[C@H](Cc1ccc(O)cc1)NC(=O)[C@H](Cc1ccccc1)NC(=O)[C@H](C)NC(=O)[C@H](CC(C)C)NC(=O)[C@H](CCC(N)=O)NC(=O)[C@@H]1CCCN1C(=O)[C@@H]1CCCN1C(=O)[C@H](CCCNC(=N)N)NC(=O)[C@H](CCCNC(=N)N)NC(=O)[C@H](CCCNC(=N)N)NC(=O)[C@H](CCC(N)=O)NC(=O)[C@H](CCCNC(=N)N)NC(=O)[C@H](CCCNC(=N)N)NC(=O)[C@H](CCCCN)NC(=O)[C@H](CCCCN)NC(=O)[C@H](CCCNC(=N)N)NC(=O)CN)C(=O)N[C@@H](C)C(=O)N[C@@H](Cc1ccccc1)C(=O)N[C@@H](CS)C(=O)O` [TAT-M14] (H-GRKKRRQRRRPPQLAFYACLAFC-OH; N-terminus and C-terminus assumed) the IC50 (Baculovirus/HEK293) was 34 nM, the IC50 [3] was 2570 nM and the RBC swelling (red blood cells (RBC) [1]) was “caused RBC swelling at higher concentrations”. For the same compound, the “dsDNA-binding (reduction in SYBR Gold fluorescence)” value (plasmid-DNA (dsDNA)) was “bind dsDNA”.
In the case of `CC(C)C[C@H](NC(=O)[C@H](CO)NC(=O)[C@H](CS)NC(=O)[C@H](CCC(N)=O)NC(=O)[C@@H]1CCCN1C(=O)[C@@H]1CCCN1C(=O)[C@H](CCCNC(=N)N)NC(=O)[C@H](CCCNC(=N)N)NC(=O)[C@H](CCCNC(=N)N)NC(=O)[C@H](CCC(N)=O)NC(=O)[C@H](CCCNC(=N)N)NC(=O)[C@H](CCCNC(=N)N)NC(=O)[C@H](CCCCN)NC(=O)[C@H](CCCCN)NC(=O)[C@H](CCCNC(=N)N)NC(=O)CN)C(=O)N[C@@H](C)C(=O)N1CCC[C@H]1C(=O)N[C@@H](C)C(=O)N[C@@H](CC(N)=O)C(=O)N[C@H](C(=O)N[C@@H](CS)C(=O)O)[C@@H](C)O` [TAT-M43] (H-GRKKRRQRRRPPQCSLAPANTC-OH; N-terminus and C-terminus assumed), the IC50 (Baculovirus/HEK293) is reported as 306 nM, the “fold higher IC50 value” value (Baculovirus/HEK293) is reported as “approximately 20 fold” and the RBC swelling (red blood cells (RBC) [1]) is reported as “did not cause RBC swelling in the absence of serum even at 20 µM”. The “dsDNA-binding (reduction in SYBR Gold fluorescence)” value (plasmid-DNA (dsDNA)) was “less dsDNA-binding”.
In the case of `CC(C)C[C@H](NC(=O)[C@H](C)NC(=O)[C@H](Cc1ccc(O)cc1)NC(=O)[C@H](Cc1ccccc1)NC(=O)[C@H](C)NC(=O)[C@H](CC(C)C)NC(=O)[C@H](Cc1ccc(O)cc1)NC(=O)[C@@H]1CCCN1C(=O)[C@H](CCCNC(=N)N)NC(=O)[C@H](CCCNC(=N)N)NC(=O)[C@H](CCCNC(=N)N)NC(=O)[C@H](CCC(N)=O)NC(=O)[C@H](CCCNC(=N)N)NC(=O)[C@H](CCCNC(=N)N)NC(=O)[C@H](CCCCN)NC(=O)[C@H](CCCCN)NC(=O)[C@H](CCCNC(=N)N)NC(=O)CN)C(=O)N[C@@H](C)C(=O)N[C@@H](Cc1ccccc1)C(=O)N[C@@H](Cc1ccc(O)cc1)C(=O)N[C@@H](C)C(=O)N[C@@H](CS)C(=O)O` [TAT-M214] (H-GRKKRRQRRRPYLAFYALAFYAC-OH), the IC50 (Baculovirus/HEK293) is reported as 25 nM, the IC50 [3] is reported as 3670 nM and the RBC swelling (red blood cells (RBC) [1]) is reported as “caused RBC swelling at higher concentrations”. It also gave a haemolysis (red blood cells (RBC) [4]; 2.5 µM peptide diluted in PBS) of 14%, a haemolysis (red blood cells (RBC) [4]; 5 µM peptide diluted in PBS) of 29% and a haemolysis (red blood cells (RBC) [4]; 10 µM peptide diluted in PBS) of 37%. The haemolysis (red blood cells (RBC) [4]; 20 µM peptide diluted in PBS, two experiments in triplicates) was 43% and the “haemolysis in the presence of 10% serum” value (red blood cells (RBC) [4]; peptide diluted in 10% donor serum) was “not in the presence of 10% serum”.
